# “Also recorded” adds a separate entry of the source.
# Legend:
# MCF7 cells [1] = test: Mitochondrial outer membrane potential assay (MOMP); format: cell-based, human; conditions: MCF7, 10 mM, 24 hrs
# Procedure: (§1) One of the key hallmarks of apoptosis is the loss of mitochondrial membrane potential. To investigate that aspect we did a MOMP assay which validates our Cell-APOPercentage assay. This assay was tested on three cell lines MCF7, MDA-MB-231 & MRC-5. The top right and bottom hand quadrants of each plot represents healthy (FL2-A) and apoptotic (FL1-A) cells respectively (see FIGS. 13 to 15).
# (§2) From the results obtained from MTT (IC50 values) and Cell-APOPercentage assays it was quite evident that ˜10 mM HPβCD caused cellular growth inhibition through apoptosis in cancer cells and had little or no effect in normal cells. Therefore, we selected just 10 mM HPβCD going forward as the only working concentration for HPβCD treatment. 24 hrs time point was selected (HPβCD & 10 mM H2O2) because mitochondrial membrane potential loss is an early cellular event.
# MDA-MB-231 cells [2] = test: as above; format: cell-based, human; conditions: MDA-MB-231, 10 mM, 24 hrs
# Procedure: as §1, §2
# MRC-5 cells [3] = test: as above; format: cell-based, human; conditions: MRC-5, 10 mM HPβCD, 24 hrs
# Procedure: as §1, §2
# MCF7 cells [4] = test: ROS assay; format: cell-based, human
# Procedure: (§3) To further validate the occurrence of apoptosis and to investigate the exact mechanisms if apoptosis, a ROS assay was conducted to capture the production of ROS. […] In order to be in solidarity with this fact, a ROS assay was performed in three cell lines: MCF7, MDA-MB-231 & MRC-5. Like before, HPβCD and the positive (10 mM H2O2) were treated for 24 hrs. The right hand section in each plot represents the production of ROS.
# MDA-MB-231 cells [5] = test: ROS assay; format: cell-based, human
# Procedure: as §3
# MRC-5 cells [6] = test: ROS assay; format: cell-based, human
# Procedure: as §3
# MDA-MB-231 cells [7] = test: Mice xenograft, triple negative breast cancer; format: in vivo, Nude Mice, MF-1 strain
# Procedure: Since the potency of HPβCD against breast cancer was established in our in vitro assays, a thorough investigation in a mice model was conducted (Nude Mice. MF-1 strain). MCF-7 and MDA-MB-231 cells were injected in 32 mice (16 for each cell type) and after tumour development, was treated with HPβCD (3000 mg/kg b.w.). Thrice a week dose treatment plan was followed throughout the study.
# To examine if HPβCD can be used as a future anti-breast cancer drug, mice xenografts were prepared. MCF7 cells (5 million) cells were injected in 16 mice with weekly β-estradiol supplementation. The study for triple negative induced breast cancer (MDA-MB-231) is complete. Up to 4 million cells were injected in 16 mice. This was subdivided in three more groups namely: Late stage, intermediate stage and early stage estrogen negative cancer. 4 mice were grouped as untreated (not receiving HPβCD), 4 for treated (late stage), 3 for treated (intermediate stage) and 3 for treated (early stage).
# This is because MDA-MB-231 cells are extremely aggressive in nature and that is the reason there is any adequate treatments except the side effects prone to chemotherapy. These 4 mice had to be euthanized at this point because of humane end points. In the late stage treated group, the treatment commenced when the size of the tumour was in between 900 mm^3 to 1350 mm^3 (FIG. 30 A, B, C).
# In the intermediate stage group (n=3), the treatment commenced when the size of the tumours reached […]. Again, after 10 doses of HPβCD treatment we saw the average size of the tumours went down to […] which is a staggering 94% decrease (FIG. 31 B, C) as compared to the untreated group. This was remarkable considering how invasive MDA-MB-231 cells are and HPβCD's ability to tame them was quite phenomenal. Finally, in the early stage group (n=3), the treatment commenced when the tumour size was 20 mm^3 (FIG. 33 A. B). […] These 3 mice were then kept for a period of 4 weeks to check for relapse of tumour because estrogen negative tumours have an extreme propensity to recur.
# [8] = AST/ALT assay of mice serum; format: in vivo
# Procedure: Post-euthanisation, the mice serum was analysed for AST/ALT ([…]) levels in order to observe if HPβCD treatment had any toxic effects on liver of treated mice (FIG. 37). The AST/ALT ratio gives an estimate of liver toxicity or damage. […] The AST/ALT ratio for all the early and intermediate groups was not different from the untreated group, was under the recommended ratio of 2 and the values were below the reference range (40 U/L) except for AST levels in the late group. In latter groups, the ratio of AST/ALT was 2.2 which was slightly above the recommended limit but was not found to be statistically different from the untreated group. […] In this regard review FIG. 37.
# MDA-MB-231 tumours = test: Filipin cholesterol staining of tumour tissue from mice; format: in vivo; conditions: intermediate and late stage tumours
# Source text: 4 from untreated, 3 from intermediate and 4 from late stage.
# MCF7 cells [9] = test: BODIPY lipid droplet staining; format: cell-based, human
# Procedure: Lipid droplets store cholesterol and HPβCD was able to reduce accumulation and storage of cholesterol in cancer cells (see FIG. 52). […] (A) is untreated, (B) is positive and (C) is treated. […] Lipid droplets store cholesterol and HPβCD was able to reduce accumulation and storage of cholesterol in cancer cells.
# MDA-MB-231 cells [10] = test: Alexa Fluor lipid raft staining; format: cell-based, human
# MCF7 cells [11] = test: Alexa Fluor lipid raft staining; format: cell-based, human
# Procedure: (B) is positive and (C) is treated.
# [12] = intermediate stage, 3000 mg/kg b.w., 10 doses
substance,measurement,setting,value
2-hydroxypropyl-β-cyclodextrin [HPβCD],apoptotic population (loss of mitochondrial membrane potential),MCF7 cells [1],92.1%
same,apoptotic cells / cell death (loss of mitochondrial membrane potential),MDA-MB-231 cells [2],78.1%
same,apoptotic cells,MRC-5 cells [3],12.8%
same,non-apoptotic/healthy population,MRC-5 cells [3],98.2%
same,ROS production compared to untreated,"MCF7 cells [4]; MCF7, 10 mM HPβCD",about 2.5 fold
same,ROS generation,"MCF7 cells [4]; MCF7, 10 mM, 24 hrs",17.9%
same,ROS production compared to untreated,"MDA-MB-231 cells [5]; MDA-MB-231, 10 mM HPβCD",about 4 fold
same,ROS generation,"MDA-MB-231 cells [5]; MDA-MB-231, 10 mM, 24 hrs",13.7%
same,ROS production compared to untreated,"MRC-5 cells [6]; MRC-5, 10 mM HPβCD",~4 folds
same,ROS generation,"MRC-5 cells [6]; MRC-5, 10 mM, 24 hrs",10.8%
same,tumour outcome,"MDA-MB-231 cells [7]; early stage (20 mm^3 at start), 3000 mg/kg b.w., 10 doses, 3000 mg/kg",completely healed; also recorded: Complete healing of tumour
same,average size of the tumours,MDA-MB-231 cells [7]; [12],784.18 mm3
same,tumour reduction compared to the untreated group,MDA-MB-231 cells [7]; [12],94%
same,tumour reduction compared to the untreated group,"MDA-MB-231 cells [7]; late stage, 3000 mg/kg b.w. intraperitoneally, 10 doses",73.9%
same,relapse of tumour,"MDA-MB-231 cells [7]; three healed early stage mice, 4 weeks",no recurrence of the tumour; also recorded: no relapse at all
same,AST/ALT ratio,[8]; early and intermediate groups,< 2
same,ratio of AST/ALT,"[8]; late group, mice serum post-euthanisation",2.2
same,liver toxicity,"[8]; mouse, in vivo, 3000 mg/kg",caused no toxicity
same,cholesterol (Filipin staining) in tumours compared to untreated,MDA-MB-231 tumours,decreased cholesterol
same,lipid droplets (BODIPY) in treated vs untreated cells,MCF7 cells [9],decrease in lipid droplets
same,lipid rafts (ALEXA FLUOR) in treated vs untreated cells,MDA-MB-231 cells [10],decrease in lipid rafts
same,lipid rafts (ALEXA FLUOR) in treated vs untreated cells,MCF7 cells [11],decrease in lipid rafts
